Laboratory results reported in paper PMC9490060, “Synthesis and evaluation of anticancer activity of quillaic acid derivatives: A cell cycle arrest and apoptosis inducer through NF-κB and MAPK pathways” (Frontiers in Chemistry, 2022).

Legend:
[1] = system: HCT116 (human colorectal cancer cell line); assay: MTT anti-proliferative assay, HCT116; type: cell-based; settings: Homo sapiens, HCT-116, 48 h incubation, means ± SD, n = 3
Source text: (§1) The anti-proliferative activities against five human cancer cell lines, including HCT116 (human colorectal cancer cell line), MCF-7 (human breast cancer cell line), SW620 (human colorectal cancer cell line), BEL7402 (human hepatocellular carcinoma cell line), and HepG2 (human hepatocellular carcinoma cell line) were established for all the target compounds using the MTT assay.
(§2) The propidium iodide (PI) and Annexin V-FITC apoptosis detection kit were purchased from Invitrogen (Eugene, OR, United States). 3-(4,5-Dimethylthiazol-2-yl)-2,5-diphenyl-2H-tetrazolium bromide (MTT) was purchased from Sigma-Aldrich Co. (St. Louis, MO, United States). All human cell lines were used in this study, colorectal cancer cell HCT116, colorectal cancer cell SW620, breast cancer cell MCF-7, liver hepatocellular carcinoma cell BEL7402, liver hepatocellular carcinoma HepG2 and normal liver cell L02 were initially purchased from American Type Culture Collection (ATCC, Manassas, VA, United States). RPMI-1640 media, Dulbecco’s modified Eagle’s medium (DMEM), and foetal bovine serum (FBS) were provided from Gibco Company (Grand Island, NY, United States). Cell line MCF-7 and HepG2 were cultivated in DMEM containing 10% (v/v) heat-inactivated FBS, 100 units/ml penicillin and […] streptomycin (Grand Island, NY, United States). Cell lines HCT116, BEL7402, SW620, and L02 were cultivated in RPMI 1640 medium containing 10% (v/v) heat-inactivated FBS, 100 units/ml penicillin, and […] streptomycin. The cells were incubated at 37°C under a 5% CO2 and 90% relative humidity (RH) atmosphere.
(§3) Stock solutions were prepared by diluting target compounds in DMSO at concentrations (1.25, 2.5, 5, and 10 mM). The stock solution was then diluted (1.25, 2.5, 5, and 10 μM) with culture medium, and the concentration of DMSO was controlled not to exceed 0.1%.
(§4) Place the cells in a 96-well plate at an appropriate density to ensure exponential growth (1 × 10^4–1.2×10^4 cells per well) throughout the experiment, and then allow the cells to adhere for 24 h. The cells were then treated with continuous concentrations of each compound (1.25, 2.5, 5, and 10 μM) for 48 h. After 48 h of incubation, 15 μl of MTT solution was added to each well, and the final concentration was 2 mg/ml. Then incubate for another 4 h. After incubation, remove the MTT solution and add […] of DMSO to each well for staining. Shake vigorously for 10 min at room temperature to ensure complete dissolution. The optical density (OD) was read on a microplate reader (ELx 800, BioTek, Highland Park, Winooski, VT, United States) with a wavelength of 492 nm, and then the data was analyzed.

[2] = system: SW620 (human colorectal cancer cell line); assay: MTT anti-proliferative assay, SW620; type: cell-based; settings: Homo sapiens, SW-620, 48 h incubation, means ± SD, n = 3
Source text: as §1, §2, §3, §4

[3] = system: BEL7402 (human hepatocellular carcinoma cell line); assay: MTT anti-proliferative assay, BEL7402; type: cell-based; settings: Homo sapiens, Bel-7402, 48 h incubation, means ± SD, n = 3
Source text: as §1, §2, §3, §4

[4] = system: HepG2 (human hepatocellular carcinoma cell line); assay: MTT anti-proliferative assay, HepG2; type: cell-based; settings: Homo sapiens, HepG2, 48 h incubation, means ± SD, n = 3
Source text: as §1, §2, §3, §4

[5] = system: MCF-7 (human breast cancer cell line); assay: MTT anti-proliferative assay, MCF-7; type: cell-based; settings: Homo sapiens, MCF7, 48 h incubation, means ± SD, n = 3
Source text: as §1, §2, §3, §4

IC50 [1] [µM]	IC50 [2] [µM]	IC50 [3] [µM]	IC50 [4] [µM]	IC50 [5] [µM]	melting point [°C]	Compound
3.61 ± 1.01	8.96 ± 1.78	> 10	8.28 ± 2.1	> 10	186 to 188	CC1(C)CC[C@]2(C(=O)OCc3cn(-c4ccccc4)nn3)[C@H](O)C[C@]3(C)C(=CC[C@@H]4[C@@]5(C)CC[C@H](O)[C@@](C)(C=O)[C@@H]5CC[C@]43C)[C@@H]2C1 [Compound A1, (1-phenyl-1H-1,2,3-triazol-4-yl)methyl (4aR,5R,6aS,6bR,8aR,9S,10S,12aR,12bR,14bS)-9-formyl-5,10-dihydroxy-2,2,6a,6b,9,12a-hexamethyl-1,3,4,5,6,6a,6b,7,8,8a,9,10,11,12,12a,12b,13,14b-octadecahydropicene-4a (2H)-carboxylate]
3.04 ± 0.92	8.78 ± 1.77	3.18 ± 1.02	> 10	> 10	171 to 172	CC1(C)CC[C@]2(C(=O)OCc3cn(-c4ccc(F)cc4)nn3)[C@H](O)C[C@]3(C)C(=CC[C@@H]4[C@@]5(C)CC[C@H](O)[C@@](C)(C=O)[C@@H]5CC[C@]43C)[C@@H]2C1 [Compound A2, (1-(4-fluorophenyl)-1H-1,2,3-triazol-4-yl)methyl (4aR,5R,6aS,6bR,8aR,9S,10S,12aR,12bR,14bS)-9-formyl-5,10-dihydroxy-2,2,6a,6b,9,12a-hexamethyl-1,3,4,5,6,6a,6b,7,8,8a,9,10,11,12,12a,12b,13,14b-octadecahydropicene-4a (2H)-carboxylate]
> 10	> 10	> 10	> 10	> 10	193 to 194	CC1(C)CC[C@]2(C(=O)OCc3cn(-c4ccc(Cl)cc4)nn3)[C@H](O)C[C@]3(C)C(=CC[C@@H]4[C@@]5(C)CC[C@H](O)[C@@](C)(C=O)[C@@H]5CC[C@]43C)[C@@H]2C1 [Compound A3, (1-(4-chlorophenyl)-1H-1,2,3-triazol-4-yl)methyl (4aR,5R,6aS,6bR,8aR,9S,10S,12aR,12bR,14bS)-9-formyl-5,10-dihydroxy-2,2,6a,6b,9,12a-hexamethyl-1,3,4,5,6,6a,6b,7,8,8a,9,10,11,12,12a,12b,13,14b-octadecahydropicene-4a (2H)-carboxylate]
> 10	> 10	> 10	> 10	> 10	205 to 206	CC1(C)CC[C@]2(C(=O)OCc3cn(-c4ccc(Cl)c(Cl)c4)nn3)[C@H](O)C[C@]3(C)C(=CC[C@@H]4[C@@]5(C)CC[C@H](O)[C@@](C)(C=O)[C@@H]5CC[C@]43C)[C@@H]2C1 [Compound A4, (1-(3,4-dichlorophenyl)-1H-1,2,3-triazol-4-yl)methyl (4aR,5R,6aS,6bR,8aR,9S,10S,12aR,12bR,14bS)-9-formyl-5,10-dihydroxy-2,2,6a,6b,9,12a-hexamethyl-1,3,4,5,6,6a,6b,7,8,8a,9,10,11,12,12a,12b,13,14b-octadecahydropicene-4a (2H)-carboxylate]
> 10	> 10	> 10	> 10	> 10	190 to 192	CC1(C)CC[C@]2(C(=O)OCc3cn(-c4ccc(Br)cc4)nn3)[C@H](O)C[C@]3(C)C(=CC[C@@H]4[C@@]5(C)CC[C@H](O)[C@@](C)(C=O)[C@@H]5CC[C@]43C)[C@@H]2C1 [Compound A5, (1-(4-bromophenyl)-1H-1,2,3-triazol-4-yl)methyl (4aR,5R,6aS,6bR,8aR,9S,10S,12aR,12bR,14bS)-9-formyl-5,10-dihydroxy-2,2,6a,6b,9,12a-hexamethyl-1,3,4,5,6,6a,6b,7,8,8a,9,10,11,12,12a,12b,13,14b-octadecahydropicene-4a (2H)-carboxylate]
> 10	> 10	> 10	> 10	> 10	192 to 193	COc1ccc(-n2cc(COC(=O)[C@]34CCC(C)(C)C[C@H]3C3=CC[C@@H]5[C@@]6(C)CC[C@H](O)[C@@](C)(C=O)[C@@H]6CC[C@@]5(C)[C@]3(C)C[C@H]4O)nn2)cc1 [Compound A6, (1-(4-methoxyphenyl)-1H-1,2,3-triazol-4-yl)methyl (4aR,5R,6aS,6bR,8aR,9S,10S,12aR,12bR,14bS)-9-formyl-5,10-dihydroxy-2,2,6a,6b,9,12a-hexamethyl-1,3,4,5,6,6a,6b,7,8,8a,9,10,11,12,12a,12b,13,14b-octadecahydropicene-4a (2H)-carboxylate]
> 10	> 10	> 10	> 10	> 10		COc1ccc(-n2cc(COC(=O)[C@]34CCC(C)(C)C[C@H]3C3=CC[C@@H]5[C@@]6(C)CC[C@H](O)[C@@](C)(C=O)[C@@H]6CC[C@@]5(C)[C@]3(C)C[C@H]4O)nn2)cc1OC [Compound A7, (1-(3,4-dimethoxyphenyl)-1H-1,2,3-triazol-4-yl)methyl (4aR,5R,6aS,6bR,8aR,9S,10S,12aR,12bR,14bS)-9-formyl-5,10-dihydroxy-2,2,6a,6b,9,12a-hexamethyl-1,3,4,5,6,6a,6b,7,8,8a,9,10,11,12,12a,12b,13,14b-octadecahydropicene-4a (2H)-carboxylate]
> 10	> 10	> 10	> 10	> 10		COc1cc(-n2cc(COC(=O)[C@]34CCC(C)(C)C[C@H]3C3=CC[C@@H]5[C@@]6(C)CC[C@H](O)[C@@](C)(C=O)[C@@H]6CC[C@@]5(C)[C@]3(C)C[C@H]4O)nn2)cc(OC)c1OC [Compound A8, (1-(3,4,5-trimethoxyphenyl)-1H-1,2,3-triazol-4-yl)methyl (4aR,5R,6aS,6bR,8aR,9S,10S,12aR,12bR,14bS)-9-formyl-5,10-dihydroxy 2,2,6a,6b,9,12a-hexamethyl-1,3,4,5,6,6a,6b,7,8,8a,9,10,11,12,12a,12b,13,14b octadecahydropicene-4a (2H)-carboxylate]
> 10	> 10	> 10	> 10	> 10	204 to 206	Cc1ccc(-n2cc(COC(=O)[C@]34CCC(C)(C)C[C@H]3C3=CC[C@@H]5[C@@]6(C)CC[C@H](O)[C@@](C)(C=O)[C@@H]6CC[C@@]5(C)[C@]3(C)C[C@H]4O)nn2)cc1 [Compound A9, (1-(p-tolyl)-1H-1,2,3-triazol-4-yl)methyl (4aR,5R,6aS,6bR,8aR,9S,10S,12aR,12bR,14bS)-9-formyl-5,10-dihydroxy-2,2,6a,6b,9,12a-hexamethyl-1,3,4,5,6,6a,6b,7,8,8a,9,10,11,12,12a,12b,13,14b-octadecahydropicene-4a (2H)-carboxylate]
5.6 ± 1.55	7.35 ± 1.7	> 10	> 10	> 10		COc1cc(-n2cnn(CCOC(=O)[C@]34CCC(C)(C)C[C@H]3C3=CC[C@@H]5[C@@]6(C)CC[C@H](O)[C@@](C)(C=O)[C@@H]6CC[C@@]5(C)[C@]3(C)C[C@H]4O)c2=O)cc(OC)c1OC [Compound C6, 2-(5-oxo-4-(3,4,5-trimethoxyphenyl)-4,5-dihydro-1H-1,2,4-triazol-1-yl)ethyl (4aR,5R,6aS,6bR,8aR,9S,10S,12aR,12bR,14bS)-9-formyl-5,10-dihydroxy-2,2,6a,6b,9,12a-hexamethyl-1,3,4,5,6,6a,6b,7,8,8a,9,10,11,12,12a,12b,13,14b-octadecahydropicene-4a (2H)-carboxylate]
> 10	> 10	> 10	> 10	> 10		CC1(C)CC[C@]2(C(=O)O)[C@H](O)C[C@]3(C)C(=CC[C@@H]4[C@@]5(C)CC[C@H](O)[C@@](C)(C=O)[C@@H]5CC[C@]43C)[C@@H]2C1 [QA, quillaic acid]
